Values after ≈ are worked out from the molar mass of the structure shown. Positions of bridges follow the written chain, without caps; N, C: chain ends. Non-standard residues stand in square brackets, D forms with d. Residues, ends and D or L forms follow the SMILES beside them. *: point of attachment. Myristoyl = CCCCCCCCCCCCCC(=O)*; dDab = NCC[C@@H](N)C(=O)O; Dab = NCC[C@H](N)C(=O)O
Experiments:
S. aureus USA300 [1] = assay: Time-dependent killing assay; type: cell-based, Staphylococcus aureus; settings: S. aureus USA300, 10x the MIC
Procedure: An overnight culture of S. aureus USA300 was diluted 1:10,000 in 50 mL fresh LB and incubated at 37° C. with aeration at 220 rpm for 2 hours. Bacteria (3 mL) were challenged with 10× the MIC of each antibiotic (10 μg/mL cilagicin, 10 μg/mL vancomycin). After 1.25, 4, 8, 16 and 24 hours 200 μL aliquots of cells were collected, centrifuged at 10,000×g for 1 minute and then resuspended in 200 μL of sterile PBS (pH 7.4). 50 μL aliquots of 10-fold serial dilutions were plated on LB agar plates. After overnight growth at 37° C., colonies were counted. Experiments were performed three independent times (n=3).

S. aureus USA300 [2] = assay: Cell lysis assay (SYTOX green); type: cell-based, Staphylococcus aureus; settings: S. aureus exposed to 8-fold MIC
Procedure: Cell lytic activity of cilagicin was evaluated using SYTOX green nucleic acid stain (Thermo Fisher, USA). Gramicidin and DMSO were used as positive and negative controls, respectively. S. aureus USA300 was grown overnight at 37° C. with shaking (200 rpm) and then diluted in fresh LB broth to an OD600nm of 0.35. 900 μL of this S. aureus USA300 suspension was mixed with 100 μL of SYTOX (17 μM in DMSO). The mixture was incubated at room temperature for 5 minutes, and then transferred into a 384-well flat bottom black microtiter plate (30 μL/well). The initial fluorescence intensity of each well was recorded using an infinite 200 PRO (Excitation/Emission=488/523 nm) at 9 second intervals for 5 minutes. […] The fluorescence intensity of each well was then continually monitored at 9 second intervals for 25 minutes and plotted by Prism 9.0. All assays were performed in biological triplicates (n=3).

Streptococcus agalactiae = type: cell-based
Procedure: (§1) MIC assay were conducted using the protocol recommended by the Clinical and Laboratory Standards Institute.(37) Culture conditions (temperature, medium) are detailed in Table 3. All compounds were dissolved in sterile DMSO (ATCC, USA) to give a concentration of 6.4 mg/mL. Vancomycin hydrochloride was used as positive controls. Tested compounds were serially diluted across 96-well plates using a 2-fold serial dilution in a volume of 50 μL. An overnight culture of an assay strain was diluted 5,000-fold in fresh medium. 50 μL of this dilution was added into each well, giving a final volume of 100 μL in each well. Compounds were assayed at concentrations ranging from 64 μg/mL to 0.06 μg/mL. The top and bottom rows of each plate were filled with 100 μL of media to avoid edge effects. […] For Clostridium difficile plates were statically incubated under anaerobic conditions (Vinyl anaerobic chamber, 37° C., 5% H2, 5% CO2, 90% N2). For Streptococcus pneumoniae plates were statically incubated under aerobic conditions supplemented with 5% C02 (37° C.). All MICs were performed in technical duplicate (n=2) and repeated three independent times (n=3).

Enterococcus faecalis = type: cell-based
Procedure: as §1

Enterobacter cloacae = type: cell-based
Procedure: as §1

Gram-positive pathogens = type: cell-based
Procedure: as §1

Staphylococcus aureus = type: cell-based; settings: S. aureus, presence versus absence of serum (10% serum)
Procedure: as §1

Pseudomonas aeruginosa = type: cell-based
Procedure: as §1

Acinetobacter baumannii = type: cell-based
Procedure: as §1

Enterococcus gallinarum = type: cell-based
Procedure: as §1

[3] = test system: Enterococcus casseliflavus; type: cell-based
Procedure: as §1

Streptococcus pneumoniae = type: cell-based
Procedure: as §1

Klebsiella pneumoniae = type: cell-based
Procedure: as §1

Enterococcus faecium = type: cell-based
Procedure: as §1

Bacillus subtilis = type: cell-based
Procedure: as §1

Streptococcus pyrogens = type: cell-based
Procedure: as §1

[4] = Animal infection model (cilagicin, not further described); type: in vivo
S. aureus USA300 [5] = assay: Resistance studies (daily serial passage at sub-MIC); type: cell-based, Staphylococcus aureus
Procedure: A single colony of S. aureus USA300 was inoculated in 5 mL LB broth and grown overnight at 37° C. with continuous shaking (200 rpm). The overnight culture was then diluted 1:5,000 into fresh LB. 50 μL aliquots of dilute cells were transferred into individual wells of 96-well plates containing 50 μL of serially diluted cilagicin, amphomycin (AG Scientific, USA) or bacitracin (Sigma, USA). Plates were statically incubated at 37° C. After 24 hours, the MIC was recorded. […] The MIC was determined as described above. This process was repeated daily for 25 days. For bacitracin, the LB medium was supplemented with 50 μg/mL ZnCl2. For amphomycin, the medium was supplemented with 100 μg/mL CaCl2-2H2O. Experiments were performed three independent times (n=3).

CCCCCCCCCCCCCC(=O)N[C@H](CO)C(=O)N[C@@H]1C(=O)N[C@H](CCN)C(=O)N[C@@H](CC(=O)O)C(=O)NCC(=O)N[C@H](CC(N)=O)C(=O)N[C@H](CC(=O)O)C(=O)NCC(=O)N[C@@H](Cc2ccc(O)cc2)C(=O)N[C@@H](C(C)C)C(=O)N[C@@H](CCN)C(=O)N[C@@H](Cc2ccccc2)C(=O)O[C@@H]1C [Cilagicin] (Myristoyl-[dS]T[dDab]DG[dN][dD]GYV[Dab]F; ester 2-C)
time-dependent killing curve analysis, kind of action (S. aureus USA300 [1]): bactericidal
reduction of the number of viable bacteria (S. aureus USA300 [1]; after 4 hours): more than four orders of magnitude
cell lytic activity (SYTOX fluorescence) (S. aureus USA300 [2]): No response was detected
Cilagicin MIC (Streptococcus agalactiae): 1 µg/mL
MIC (Streptococcus agalactiae): 1 µg/mL (≈ 0.682 µM)
Cilagicin MIC (Enterococcus faecalis): 0.5 µg/mL
Cilagicin MIC (Enterobacter cloacae): >64 µg/mL
MIC (Gram-positive pathogens): 1 µg/mL (≈ 0.682 µM)
MICs (Gram-positive pathogens): ≤ 0.25 µg/mL
minimum inhibitory concentrations (MIC) (Gram-positive pathogens): 0.125 to 2 µg/mL
antibacterial activity (MIC) in the presence of serum (Staphylococcus aureus): significantly suppressed
Cilagicin MIC (Pseudomonas aeruginosa): >64 µg/mL
Cilagicin MIC (Acinetobacter baumannii): 8 µg/mL
MIC (Acinetobacter baumannii; A. baumannii (Table 5)): 8 µg/mL (≈ 5.45 µM)
Cilagicin MIC (Enterococcus gallinarum): 0.5 µg/mL
Cilagicin MIC [3]: 0.125 µg/mL
MIC (Streptococcus pneumoniae): 0.25 µg/mL (≈ 0.17 µM)
Cilagicin MIC (Klebsiella pneumoniae): >64 µg/mL
Cilagicin MIC (Enterococcus faecium): 0.5 µg/mL
MIC (Enterococcus faecium): 0.5 µg/mL (≈ 0.341 µM)
Cilagicin MIC (Bacillus subtilis): 2 µg/mL
Cilagicin MIC (Streptococcus pyrogens): 0.125 µg/mL
MIC (Streptococcus pyrogens): 0.125 µg/mL (≈ 0.0852 µM)
bacterial burden [4]: did not reduce bacterial burden
maximum change in MIC (increase) (S. aureus USA300 [5]; S. aureus USA300, after 25 days of constant exposure): 1 fold
cross resistance of bacitracin resistant and amphomycin resistant mutants (S. aureus USA300 [5]; S. aureus mutants raised by serial passage): neither the highly bacitracin resistant mutants nor the highly amphomycin resistant mutants that were generated showed cross resistance

From patent US20260193295A1, “CILAGICIN COMPOUNDS AND METHODS OF USE THEREOF” (priority 2022, published 2026)
